Experimental data reported in article PMC5632197 (Bioorganic & medicinal chemistry, 2017).
Entries after “also recorded” stand apart in the source; their conditions may differ. Like-named read-outs stand apart in the source and are kept apart here.

How the values were obtained:
T. brucei = settings: 7-day 50 mg/kg/day intraperitoneal dosage; cited from earlier work
CNS stage of HAT = settings: cited from earlier work
[1] = mice; cited from earlier work
[2] = molecular target: T1, T. brucei AdoMetDC/prozyme (Trypanosoma brucei brucei, UniProt P50244); experiment: T. brucei AdoMetDC enzyme activity assay; type: biochemical; settings: for fold less active against AdoMetDC compared to parent: compared to 1 (27 versus 11a), IC50 with PI
T1 sequence (P50244 86-370 limits assumed): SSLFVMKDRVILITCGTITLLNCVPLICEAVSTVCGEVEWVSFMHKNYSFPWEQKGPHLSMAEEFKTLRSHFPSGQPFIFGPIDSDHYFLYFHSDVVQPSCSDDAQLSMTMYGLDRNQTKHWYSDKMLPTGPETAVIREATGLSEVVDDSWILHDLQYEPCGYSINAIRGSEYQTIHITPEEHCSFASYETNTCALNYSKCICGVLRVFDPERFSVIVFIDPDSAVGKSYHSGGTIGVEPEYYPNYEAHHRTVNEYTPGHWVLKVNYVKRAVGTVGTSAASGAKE

[3] = system: T. brucei Lister 427 bloodstream-form cells; experiment: T. brucei cell growth inhibition assay; type: cell-based, Trypanosoma brucei brucei
[4] = AdoMetDC IC50 with PI, with 30 min pre-incubation, triplicate
[5] = AdoMetDC IC50 without PI, without pre-incubation, triplicate

| SMILES | IC50 [2, 4] [µM] | IC50 [2, 5] [µM] | further results |
| --- | --- | --- | --- |
| CN(C/C=C\CN)C[C@H]1O[C@@H](n2cnc3c(N)ncnc32)[C@H](O)[C@@H]1O [Compound 1, 5'-(((Z)-4-amino-2-butenyl)methylamino)-5'-deoxyadenosine] |  |  | cure of mice infected with T. brucei (T. brucei): sterile cure; cure in mouse model of the CNS stage of HAT (CNS stage of HAT): not efficacious; also recorded: neither compound led to a cure; brain-to-blood ratio [1]: 1.7% |
| Cc1nc2c(N)ncnc2n1[C@@H]1O[C@H](CN(C)C/C=C\CNC(=O)OC(C)C)[C@@H](O)[C@H]1O [Compound 3c] | > 50 | > 50 |  |
| CCCC(=O)NC/C=C\CN(C)C[C@H]1O[C@@H](n2cnc3c(N)ncnc32)[C@H](O)[C@@H]1O [Compound 5c] | > 50 | > 50 |  |
| CC(=O)NC/C=C\CN(C)C[C@H]1O[C@@H](n2cnc3c(N)ncnc32)[C@H](OC(C)=O)[C@@H]1OC(C)=O [Compound 6a] | > 50 | > 50 |  |
| CCC(=O)NC/C=C\CN(C)C[C@H]1O[C@@H](n2cnc3c(N)ncnc32)[C@H](OC(C)=O)[C@@H]1OC(C)=O [Compound 6b] | > 50 | > 50 |  |
| CCCC(=O)NC/C=C\CN(C)C[C@H]1O[C@@H](n2cnc3c(N)ncnc32)[C@H](OC(C)=O)[C@@H]1OC(C)=O [Compound 6c] | > 50 | > 50 |  |
| Cc1nc2c(N)ncnc2n1[C@@H]1O[C@H](CN(C)C/C=C\CNC(=O)OC(C)(C)C)[C@H]2OC(C)(C)O[C@H]21 [Compound 10a] | > 50 | > 50 |  |
| Cc1nc2c(N)ncnc2n1[C@@H]1O[C@H](CN(C/C=C\CNC(=O)OC(C)(C)C)C2CC2)[C@H]2OC(C)(C)O[C@H]21 [Compound 10c] |  | > 50 |  |
| CN(C/C=C\CN)C[C@H]1O[C@@H](n2cnc3c(N)ncnc32)[C@@H]2OC(C)(C)O[C@@H]21 [Compound 11a] |  |  | fold reduced activity in T. b. brucei cell growth assay compared to 1 ([3]; EC50 compared to parent MDL 73811 (1)): ~ 50 fold; fold less active against AdoMetDC compared to parent [2]: ~ 50 fold |
| NC/C=C\CN(CCF)C[C@H]1O[C@@H](n2cnc3c(N)ncnc32)[C@H](O)[C@@H]1O [Compound 12b] |  | > 50 |  |
| Cc1nc2c(N)ncnc2n1[C@@H]1O[C@H](CN(C/C=C\CN)C2CC2)[C@@H](O)[C@H]1O [Compound 12c] | > 50 | > 50 |  |
| CN(CC=CCN)CC1OC(n2cnc3c(N)ncnc32)C2OC3(CCCCC3)OC12 (stereo not drawn) [Compound 22] |  |  | EC50 ([3]; read-out: EC50 (T. b. brucei), 48 h cell viability, triplicate): > 25 µM; IC50 ([2]; read-out: AdoMetDC IC50, pre-incubation not stated): > 50 µM |
| CNc1ncnc2c1ncn2[C@@H]1O[C@H](CN(C)C/C=C\CN)[C@@H](O)[C@H]1O [Compound 28a] |  |  | fold less active against AdoMetDC compared to parent [2]: 3- to 4 fold |
| CN(C/C=C\CN)C[C@H]1O[C@@H](n2cnc3c(N(C)C)ncnc32)[C@H](O)[C@@H]1O [Compound 28b] |  |  | fold less active against AdoMetDC compared to parent [2]: ~ 20 fold |
| CC(C)Nc1ncnc2c1ncn2[C@@H]1O[C@H](CN(C)C/C=C\CN)[C@@H](O)[C@H]1O [Compound 28c] |  |  | fold less active against AdoMetDC compared to parent [2]: 3- to 4 fold |
| CCOc1ncnc2c1ncn2[C@@H]1O[C@H](CN(C)C/C=C\CN)[C@@H](O)[C@H]1O [Compound 28d] |  |  | fold less active against AdoMetDC compared to parent [2]: ~16 fold |
| CCCCCCCCC(=O)Nc1ncnc2c1ncn2[C@@H]1O[C@H](CN(C)C/C=C\CN)[C@H]2OC(C)(C)O[C@H]21 [Compound 31] |  |  | fold more potent inhibition of T.b. brucei proliferation than 11a ([3]; compared to comparator 11a): 2.6 fold; fold more potent inhibition of AdoMetDC enzymatic activity than 11a ([2]; compared to comparator 11a): 3.5 fold |

Second part, led by results:

| IC50 [2, 4] [µM] | IC50 [2, 5] [µM] | SMILES | further results |
| --- | --- | --- | --- |
| > 50 | > 50 | CC1(C)O[C@@H]2[C@H](O1)[C@@H](CN(C/C=C\CN)CCF)O[C@H]2n1cnc2c(N)ncnc21 [Compound 11b] |  |
| > 50 | > 50 | Cc1nc2c(N)ncnc2n1[C@@H]1O[C@H](CN(C/C=C\CN)C2CC2)[C@H]2OC(C)(C)O[C@H]21 [Compound 11c] |  |
| > 50 | > 50 | Cc1nc2c(N)ncnc2n1[C@@H]1O[C@H](CN(C/C=C\CN)CCO)[C@H]2OC(C)(C)O[C@H]21 [Compound 11d] |  |
|  | > 50 | CNc1ncnc2c1ncn2[C@@H]1O[C@H](CN(C)C/C=C\CN)[C@H]2OC(C)(C)O[C@H]21 [Compound 27] | fold less active against AdoMetDC compared to parent [2]: 3- to 4 fold |
| > 50 | > 50 | CN(C/C=C\CN)C[C@H]1O[C@@H](n2cnc3cncnc32)[C@@H]2OC(C)(C)O[C@@H]21 [Compound 30] |  |
